What was measured:
SNORF25 receptor = target: T1, SNORF25 receptor (UniProt Q7TQN8); assay: cAMP release in Cos-7 cells transiently transfected with SNORF25; assay type: cell-based; conditions: SNORF25 transiently transfected Cos-7 cells (FIG. 8)
T1 construct: Emax of cAMP response
T1 sequence (Q7TQN8 1-468): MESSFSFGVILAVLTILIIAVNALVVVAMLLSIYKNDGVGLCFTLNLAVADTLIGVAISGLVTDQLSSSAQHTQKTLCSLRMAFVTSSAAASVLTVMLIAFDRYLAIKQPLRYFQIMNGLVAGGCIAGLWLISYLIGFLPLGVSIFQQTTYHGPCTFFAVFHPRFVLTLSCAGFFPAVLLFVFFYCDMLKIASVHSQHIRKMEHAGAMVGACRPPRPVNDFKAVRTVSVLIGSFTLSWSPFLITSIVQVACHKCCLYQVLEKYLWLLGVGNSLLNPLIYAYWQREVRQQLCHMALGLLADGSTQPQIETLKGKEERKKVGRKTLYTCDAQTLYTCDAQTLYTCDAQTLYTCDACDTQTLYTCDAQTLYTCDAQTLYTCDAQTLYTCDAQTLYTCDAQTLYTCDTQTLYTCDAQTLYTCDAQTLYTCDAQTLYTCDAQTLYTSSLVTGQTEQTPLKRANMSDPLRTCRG
Protocol: COS-7 cells are grown on 150 mm plates in DMEM with supplements (Dulbecco's Modified Eagle Medium with 10% bovine calf serum, 4 mM glutamine, 100 units/ml penicillin/100 μg/ml streptomycin) at 37° C., 5% CO2. Stock plates of COS-7 cells are trypsinized and split 1:6 every 3–4 days.
A typical protocol for the electroporation method as applied to Cos-7 cells is described as follows. Cells to be used for transfection are split 24 hours prior to the transfection to provide flasks which are subconfluent at the time of transfection. The cells are harvested by trypsinization resuspended in their growth media and counted. 5×10^6 cells are suspended in 300 μl of DMEM and placed into an electroporation cuvette. 8 μg of receptor DNA plus 8 μg of any additional DNA needed (e.g. G protein expression vector, reporter construct, antibiotic resistance marker, mock vector, etc.) is added to the cell suspension, the cuvette is placed into a BioRad Gene Pulser and subjected to an electrical pulse (Gene Pulser settings: 0.25 kV voltage, 950 μF capacitance). […]
The receptor-mediated stimulation or inhibition of cyclic AMP (cAMP) formation may be assayed in cells expressing the receptors. […] The plates are stored at 4° C. for 15 min, and the cAMP content in the stopping solution is measured by radioimmunoassay. Radioactivity may be quantified using a gamma counter equipped with data reduction software. […]

SNORF25 = target: T2, SNORF25 (Homo sapiens, UniProt Q8TDV5); assay: CFTR Cl- currents in Xenopus oocytes co-injected with SNORF25 and CFTR mRNA; assay type: cell-based; parameters: from linearized plasmids or PCR products containing the complete coding region of the genes; expressed in transfected cells; host or cells: Xenopus laevis oocytes injected with SNORF25 mRNA (with or without CFTR mRNA)
T2 sequence (Q8TDV5 1-335): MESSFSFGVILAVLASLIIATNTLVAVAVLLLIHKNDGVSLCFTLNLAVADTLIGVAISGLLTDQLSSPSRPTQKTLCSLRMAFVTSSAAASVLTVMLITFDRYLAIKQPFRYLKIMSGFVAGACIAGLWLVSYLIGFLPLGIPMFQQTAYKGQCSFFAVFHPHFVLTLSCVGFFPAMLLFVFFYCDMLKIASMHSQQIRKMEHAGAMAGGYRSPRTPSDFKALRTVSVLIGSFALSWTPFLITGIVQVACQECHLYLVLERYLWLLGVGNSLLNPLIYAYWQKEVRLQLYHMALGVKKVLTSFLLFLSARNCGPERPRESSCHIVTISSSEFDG
Protocol: Oocytes are harvested from Xenopus laevis and injected with mRNA transcripts as previously described (Quick and Lester, 1994; Smith et al., 1997). The test receptor of this invention and Gα subunit RNA transcripts are synthesized using the T7 polymerase (“Message Machine,” Ambion) from linearized plasmids or PCR products containing the complete coding region of the genes. Oocytes are injected with 10 ng synthetic receptor RNA and incubated for 3–8 days at 17 degrees. Three to eight hours prior to recording, oocytes are injected with 500 pg promiscuous Gα subunits mRNA in order to observe coupling to Ca^++ activated Cl^− currents.
Each of the compounds was tested at 10 μM. Oocytes expressing SNORF25 generated inward Cl^− currents, consistent with CFTR activation, in response to all four of the ligands.
The activity of SNORF25 was therefore tested in oocytes co-injected with mRNA encoding SNORF25 and mRNA encoding CFTR. In 17 out of 39 of these oocytes an inward Cl^− current (105±20 nA) was measured in response to the application of 10 μM all-trans-retinoic acid (See FIGS. 9A–9C and 10).

SMILES: CC1=C(/C=C/C(C)=C/C=C/C(C)=C/C(=O)O)C(C)(C)CCC1 [ATRA, all-trans-retinoic acid]
- Emax of cAMP response (SNORF25 receptor): 200–300%
- inward Cl- current amplitude (SNORF25; 10 μM, oocytes with SNORF25 and CFTR mRNA): 105±20 nA
- delay for activation of CFTR (SNORF25; SNORF25-expressing oocytes): ~10 s
